# Assay results as given in ChEMBL document CHEMBL5506022, “Discovery of Novel Dual Inhibitors Targeting Mutant IDH1 and NAMPT for the Treatment of Glioma with IDH1Mutation” (J Med Chem, 2024).
# Activity calls are given as the source filed them. The rule behind the calls is not given here.
# Key:
# [1] = target: Isocitrate dehydrogenase [NADP] cytoplasmic (Homo sapiens, UniProt O75874, R132C); assay: Inhibition of recombinant IDH1 R132C mutant (unknown origin) using alpha-ketoglutarate as substrate incubated for 60 mins in presence of NADPH by fluorescence microplate reader
# Chain of Isocitrate dehydrogenase [NADP] cytoplasmic (Homo sapiens, UniProt O75874, R132C) (O75874 2-414 R132C limits assumed): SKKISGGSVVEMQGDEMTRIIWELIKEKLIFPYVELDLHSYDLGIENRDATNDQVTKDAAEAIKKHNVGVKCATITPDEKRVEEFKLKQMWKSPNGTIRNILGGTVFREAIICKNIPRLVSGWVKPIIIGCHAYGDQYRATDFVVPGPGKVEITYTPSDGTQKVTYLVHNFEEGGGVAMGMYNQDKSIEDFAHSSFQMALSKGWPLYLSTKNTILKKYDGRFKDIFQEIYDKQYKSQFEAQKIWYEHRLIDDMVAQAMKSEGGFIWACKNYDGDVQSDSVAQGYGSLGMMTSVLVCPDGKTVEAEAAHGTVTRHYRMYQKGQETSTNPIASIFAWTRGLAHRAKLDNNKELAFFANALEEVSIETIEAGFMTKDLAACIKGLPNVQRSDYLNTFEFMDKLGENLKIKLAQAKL
# [2] = target: Isocitrate dehydrogenase [NADP] cytoplasmic (Homo sapiens, UniProt O75874); assay: Inhibition of wildtype IDH1 (unknown origin) using DL-isocitrate as substrate incubated for 60 mins in presence of NADP by fluorescence microplate reader
# Chain of Isocitrate dehydrogenase [NADP] cytoplasmic (Homo sapiens, UniProt O75874) (O75874 whole entry): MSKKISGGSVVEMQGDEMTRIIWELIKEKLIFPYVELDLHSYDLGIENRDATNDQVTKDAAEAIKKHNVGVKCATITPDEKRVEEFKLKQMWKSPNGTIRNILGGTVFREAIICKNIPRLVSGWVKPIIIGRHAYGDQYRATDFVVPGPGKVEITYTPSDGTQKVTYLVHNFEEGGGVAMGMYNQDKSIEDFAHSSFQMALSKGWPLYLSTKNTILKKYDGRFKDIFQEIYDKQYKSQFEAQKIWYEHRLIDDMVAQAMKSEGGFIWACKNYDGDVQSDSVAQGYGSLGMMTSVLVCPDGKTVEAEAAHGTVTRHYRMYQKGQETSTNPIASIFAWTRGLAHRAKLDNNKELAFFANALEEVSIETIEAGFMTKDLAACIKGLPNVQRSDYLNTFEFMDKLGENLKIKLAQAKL
# [3] = target: Isocitrate dehydrogenase [NADP], mitochondrial (Homo sapiens, UniProt P48735, R140Q); assay: Inhibition of IDH2 R140Q mutant (unknown origin) using alpha-ketoglutarate as substrate incubated in presence of NADPH by Envision multimode plate reader analysis
# Chain of Isocitrate dehydrogenase [NADP], mitochondrial (Homo sapiens, UniProt P48735, R140Q) (P48735 40-452 R140Q limits assumed): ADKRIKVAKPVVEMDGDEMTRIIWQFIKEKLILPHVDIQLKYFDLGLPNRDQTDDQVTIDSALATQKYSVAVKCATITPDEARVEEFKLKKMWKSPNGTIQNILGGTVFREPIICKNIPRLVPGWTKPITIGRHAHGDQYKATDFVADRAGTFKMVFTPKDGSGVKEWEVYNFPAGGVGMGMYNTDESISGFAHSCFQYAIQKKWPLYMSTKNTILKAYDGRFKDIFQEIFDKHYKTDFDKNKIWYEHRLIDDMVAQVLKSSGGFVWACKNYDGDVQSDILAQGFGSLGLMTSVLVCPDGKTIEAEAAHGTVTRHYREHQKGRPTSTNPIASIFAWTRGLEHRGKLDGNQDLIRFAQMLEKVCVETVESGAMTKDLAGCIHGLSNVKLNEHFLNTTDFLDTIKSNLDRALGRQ
# [4] = target: Isocitrate dehydrogenase [NADP], mitochondrial (Homo sapiens, UniProt P48735, R172K); assay: Inhibition of IDH2 R172K mutant (unknown origin) using alpha-ketoglutarate as substrate incubated in presence of NADPH by Envision multimode plate reader analysis
# Chain of Isocitrate dehydrogenase [NADP], mitochondrial (Homo sapiens, UniProt P48735, R172K) (P48735 40-452 R172K limits assumed): as the sequence (P48735 40-452 R140Q limits assumed) above, with Q101R, R133K counted along it
# [5] = target: T1, Isocitrate dehydrogenase [NADP], mitochondrial (Homo sapiens, UniProt P48735); assay: Inhibition of wildtype IDH2 (unknown origin) […] by Envision multimode plate reader analysis
# T1 sequence (P48735 whole entry): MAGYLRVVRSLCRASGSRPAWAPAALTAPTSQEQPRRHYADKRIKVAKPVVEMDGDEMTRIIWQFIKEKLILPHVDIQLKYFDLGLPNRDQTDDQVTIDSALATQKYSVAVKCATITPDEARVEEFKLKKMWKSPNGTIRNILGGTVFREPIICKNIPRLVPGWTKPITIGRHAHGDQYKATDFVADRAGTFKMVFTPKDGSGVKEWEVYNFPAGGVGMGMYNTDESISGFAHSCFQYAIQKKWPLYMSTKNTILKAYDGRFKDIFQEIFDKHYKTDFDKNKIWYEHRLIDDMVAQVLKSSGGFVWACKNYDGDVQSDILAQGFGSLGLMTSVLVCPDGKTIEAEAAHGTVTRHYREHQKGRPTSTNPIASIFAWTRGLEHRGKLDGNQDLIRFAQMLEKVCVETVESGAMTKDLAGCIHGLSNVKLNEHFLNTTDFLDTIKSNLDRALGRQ
# U-87 MG [6] = assay: Antiproliferative activity against human U-87 MG cells harboring wildtype IDH1 assessed as inhibition of cell growth incubated for 24 hrs by CCK8 assay; format: functional, cell-based, U-87MG ATCC
# U-87 MG [7] = assay: Antiproliferative activity against human U-87 MG cells harboring wildtype IDH1 assessed as inhibition of cell growth incubated for 48 hrs by CCK8 assay; format: functional, cell-based, U-87MG ATCC
# U-87 MG [8] = assay: Antiproliferative activity against human U-87 MG cells harboring wildtype IDH1 assessed as inhibition of cell growth incubated for 72 hrs by CCK8 assay; format: functional, cell-based, U-87MG ATCC
# U-87 MG [9] = format: functional, cell-based, U-87MG ATCC; conditions: Homo sapiens, 24 h
# U-87 MG [10] = format: functional, cell-based, U-87MG ATCC; conditions: Homo sapiens, 48 h
# U-87 MG [11] = format: functional, cell-based, U-87MG ATCC; conditions: Homo sapiens, 72 h
# [12] = Half-life in Sprague-Dawley rat at 1 mg/kg, iv measured after 24 hrs by LC-MS/MS analysis; format: ADME, organism-based; conditions: in vivo
# [13] = Cmax in Sprague-Dawley rat at 1 mg/kg, iv measured after 24 hrs by LC-MS/MS analysis; format: ADME, organism-based; conditions: in vivo
# [14] = AUC (0 to t) in Sprague-Dawley rat at 1 mg/kg, iv measured after 24 hrs by LC-MS/MS analysis; format: ADME, organism-based; conditions: in vivo
# [15] = AUC (0 to infinity) in Sprague-Dawley rat at 1 mg/kg, iv measured after 24 hrs by LC-MS/MS analysis; format: ADME, organism-based; conditions: in vivo
# [16] = Half-life in Sprague-Dawley rat at 10 mg/kg, po measured after 24 hrs by LC-MS/MS analysis; format: ADME, organism-based; conditions: in vivo
# [17] = target: T2, Nicotinamide phosphoribosyltransferase (Homo sapiens, UniProt P43490); format: cell-based; conditions: U-87 MG, dose 0.5-2 µM, time 48.0 hrs
# Target sequence in this assay (P43490 whole entry, looked up): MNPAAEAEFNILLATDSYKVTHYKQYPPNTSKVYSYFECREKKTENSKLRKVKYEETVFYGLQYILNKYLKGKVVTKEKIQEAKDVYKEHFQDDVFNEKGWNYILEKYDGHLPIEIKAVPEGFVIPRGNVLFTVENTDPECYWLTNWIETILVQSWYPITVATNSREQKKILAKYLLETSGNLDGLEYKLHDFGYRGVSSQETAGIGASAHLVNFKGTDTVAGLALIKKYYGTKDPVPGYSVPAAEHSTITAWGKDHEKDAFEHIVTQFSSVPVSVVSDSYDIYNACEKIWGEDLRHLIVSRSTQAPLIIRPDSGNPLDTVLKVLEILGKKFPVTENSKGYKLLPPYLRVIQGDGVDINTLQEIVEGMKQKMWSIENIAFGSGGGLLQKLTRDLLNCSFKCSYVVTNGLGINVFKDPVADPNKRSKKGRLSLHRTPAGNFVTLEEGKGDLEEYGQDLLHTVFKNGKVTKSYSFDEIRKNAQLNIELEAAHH
# U-87MG ATCC [18] = assay: Effect on intracellular NADP+ level in human U-87 MG cells harboring wildtype IDH1; format: functional, cell-based
# U-87MG ATCC [19] = format: functional, cell-based; conditions: Homo sapiens, dose 0.5-2 µM, time 48.0 hrs
# U-87MG ATCC [20] = format: functional, cell-based; conditions: Homo sapiens, dose 0.5-2 µM, time 48.0 hrs; remark: listed apart in the source
# [21] = target: T2, Nicotinamide phosphoribosyltransferase; format: cell-based; conditions: U-87 MG, dose 0.5 µM, time 6.0 hrs
# Target sequence in this assay (P43490 whole entry, looked up): as above
# U-87MG ATCC [22] = format: functional, cell-based; conditions: Homo sapiens, dose 0.5-2 µM, time 24.0 hrs
# U-87MG ATCC [23] = format: functional, cell-based; conditions: Homo sapiens, dose 0.5-2 µM, time 24.0 hrs; remark: listed apart in the source
# U-87MG ATCC [24] = format: functional, cell-based; conditions: Homo sapiens, dose 0.5-2 µM, time 24.0 hrs; remark: listed apart in the source
# U-87MG ATCC [25] = format: functional, cell-based; conditions: Homo sapiens, dose 0.5-2 µM, time 24.0 hrs; remark: listed apart in the source
# U-87MG ATCC [26] = format: functional, cell-based; conditions: Homo sapiens, dose 0.5-2 µM, time 24.0 hrs; remark: listed apart in the source
# U-87MG ATCC [27] = format: functional, cell-based; conditions: Homo sapiens, dose 0.5-2 µM, time 24.0 hrs; remark: listed apart in the source
# U-87 MG [28] = format: functional, U-87MG ATCC; conditions: Homo sapiens, time 48 hrs, read-out: Activity
# U-87 MG [29] = format: functional, Homo sapiens, U-87MG ATCC; conditions: dose 2 µM; time 48 hrs
# U-87 MG [30] = format: functional, Homo sapiens, U-87MG ATCC; conditions: dose 2 µM; time 48 hrs; remark: listed apart in the source
# U-87 MG [31] = format: functional, Homo sapiens, U-87MG ATCC; conditions: dose 2 µM; time 48 hrs; remark: listed apart in the source
# U-87 MG [32] = format: functional, U-87MG ATCC; conditions: Homo sapiens, time 48 hrs, read-out: Activity; remark: listed apart in the source
# [33] = Tmax in Sprague-Dawley rat at 10 mg/kg, po measured after 24 hrs by LC-MS/MS analysis; format: ADME, organism-based; conditions: in vivo
# U-87 MG [34] = format: functional, Homo sapiens, U-87MG ATCC; conditions: dose 0.5 µM; time 48 hrs
# U-87 MG [35] = format: functional, Homo sapiens, U-87MG ATCC; conditions: dose 0.5 µM; time 48 hrs; remark: listed apart in the source
# U-87 MG [36] = format: functional, Homo sapiens, U-87MG ATCC; conditions: dose 0.5 µM; time 48 hrs; remark: listed apart in the source
# [37] = Acute toxicity in ICR mouse at 400 mg/kg, po measured for 7 days; format: organism-based; conditions: in vivo, 168 h, time 7 day
# [38] = Tmax in Sprague-Dawley rat at 1 mg/kg, iv measured after 24 hrs by LC-MS/MS analysis; format: ADME, organism-based; conditions: in vivo
# [39] = Clearance in Sprague-Dawley rat at 1 mg/kg, iv measured after 24 hrs by LC-MS/MS analysis; format: ADME, organism-based; conditions: in vivo
# [40] = Cmax in Sprague-Dawley rat at 10 mg/kg, po measured after 24 hrs by LC-MS/MS analysis; format: ADME, organism-based; conditions: in vivo
# [41] = AUC (0 to t) in Sprague-Dawley rat at 10 mg/kg, po measured after 24 hrs by LC-MS/MS analysis; format: ADME, organism-based; conditions: in vivo
# [42] = AUC (0 to infinity) in Sprague-Dawley rat at 10 mg/kg, po measured after 24 hrs by LC-MS/MS analysis; format: ADME, organism-based; conditions: in vivo
# [43] = Oral bioavailability in Sprague-Dawley rat at 10 mg/kg measured after 24 hrs by LC-MS/MS analysis; format: ADME, organism-based; conditions: in vivo
# [44] = Permeability of compound by PAMPA-BBB assay; format: ADME; conditions: read-out: permeability
# [45] = Ratio of drug concentration in ICR mouse brain to plasma at 5 mg/kg, iv measured after 24 hrs by LC-MS/MS analysis; format: ADME, organism-based; conditions: read-out: BPR
# [46] = AUC in ICR mouse brain at 5 mg/kg, iv measured after 24 hrs by LC-MS/MS analysis; format: ADME, organism-based
# [47] = AUC in ICR mouse plasma at 5 mg/kg, iv measured after 24 hrs by LC-MS/MS analysis; format: ADME, organism-based
# U-87 MG [48] = format: functional, Homo sapiens, U-87MG ATCC; conditions: dose 10 mg/kg; route iv; time 35 day
# U-87 MG [49] = format: functional, Homo sapiens, U-87MG ATCC; conditions: dose 20 mg/kg; route iv; time 35 day
# U-87 MG [50] = format: functional, Homo sapiens, U-87MG ATCC; conditions: dose 40 mg/kg; route iv; time 35 day
# U-87 MG [51] = format: functional, organism-based; conditions: Homo sapiens; U-87MG ATCC; dose 10-40 mg/kg, route iv, time 35.0 day
# U-87 MG [52] = format: functional, cell-based; conditions: Homo sapiens; U-87MG ATCC; dose 10-40 mg/kg, route iv, time 35.0 day
# U-87 MG [53] = format: functional, organism-based; conditions: Homo sapiens; U-87MG ATCC; dose 10-40 mg/kg, route iv, time 35.0 day; remark: listed apart in the source
# [54] = target: Voltage-gated inwardly rectifying potassium channel KCNH2 (Homo sapiens, UniProt Q12809); assay: Inhibition of human ERG in CHO cells incubated for 2.5 mins by Qpatch electrogram analysis; format: toxicity, cell-based
# Chain of Voltage-gated inwardly rectifying potassium channel KCNH2 (Q12809 whole entry): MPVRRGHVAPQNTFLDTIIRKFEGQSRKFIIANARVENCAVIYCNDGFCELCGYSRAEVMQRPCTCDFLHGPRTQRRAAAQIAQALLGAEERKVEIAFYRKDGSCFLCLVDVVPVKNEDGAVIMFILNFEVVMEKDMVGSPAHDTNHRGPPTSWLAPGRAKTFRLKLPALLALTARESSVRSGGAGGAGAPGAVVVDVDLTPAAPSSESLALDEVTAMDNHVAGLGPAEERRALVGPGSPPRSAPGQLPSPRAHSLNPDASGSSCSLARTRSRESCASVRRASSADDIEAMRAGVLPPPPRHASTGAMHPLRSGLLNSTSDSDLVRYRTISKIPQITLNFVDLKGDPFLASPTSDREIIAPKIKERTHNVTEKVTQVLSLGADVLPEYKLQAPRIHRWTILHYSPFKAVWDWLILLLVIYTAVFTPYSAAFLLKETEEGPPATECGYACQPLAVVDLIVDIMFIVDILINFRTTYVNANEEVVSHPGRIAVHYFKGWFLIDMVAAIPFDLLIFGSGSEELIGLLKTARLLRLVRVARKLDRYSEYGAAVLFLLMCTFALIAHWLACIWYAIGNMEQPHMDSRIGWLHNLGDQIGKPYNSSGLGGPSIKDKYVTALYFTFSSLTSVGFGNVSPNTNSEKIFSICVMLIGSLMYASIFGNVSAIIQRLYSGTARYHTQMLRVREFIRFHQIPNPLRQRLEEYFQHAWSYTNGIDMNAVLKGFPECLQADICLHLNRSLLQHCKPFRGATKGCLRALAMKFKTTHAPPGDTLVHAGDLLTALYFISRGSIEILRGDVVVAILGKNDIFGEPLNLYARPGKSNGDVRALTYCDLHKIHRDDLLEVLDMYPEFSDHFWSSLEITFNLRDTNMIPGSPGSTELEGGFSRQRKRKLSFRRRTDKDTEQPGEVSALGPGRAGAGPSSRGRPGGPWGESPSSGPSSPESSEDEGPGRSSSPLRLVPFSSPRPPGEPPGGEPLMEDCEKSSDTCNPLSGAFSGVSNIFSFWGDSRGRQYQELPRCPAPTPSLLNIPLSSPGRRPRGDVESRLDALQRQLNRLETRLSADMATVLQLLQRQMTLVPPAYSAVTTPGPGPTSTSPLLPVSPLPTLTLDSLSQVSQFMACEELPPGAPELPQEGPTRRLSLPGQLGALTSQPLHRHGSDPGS
# [55] = target: T2, Nicotinamide phosphoribosyltransferase
# Target sequence in this assay (P43490 whole entry): as the sequence (P43490 whole entry, looked up) above
# U-87 MG [56] = assay: cells; conditions: Homo sapiens, 48 h, read-out: Activity
smiles,measurement,setting,value
C[C@H](Nc1nccc(N2C(=O)OC[C@@H]2[C@H](C)F)n1)c1ccc(-c2ccc(NC(=O)COc3cccnc3)cc2)cc1,IC50,[1],65.1 nM
same,IC50,[2],8950 nM
same,IC50,[3],> 100000 nM
same,IC50,[4],> 100000 nM
same,IC50,[5],> 100000 nM
same,IC50,U-87 MG [6],1260 nM
same,IC50,U-87 MG [7],770 nM
same,IC50,U-87 MG [8],420 nM
same,IC50,U-87 MG [9],890 nM
same,IC50,U-87 MG [10],470 nM
same,IC50,U-87 MG [11],320 nM
same,half-life,[12],69.6 min
same,Cmax,[13],4070 ng/mL
same,AUC(0-t) at 24 h,[14],1930 ng·h/mL
same,AUC(0-inf),[15],1940 ng·h/mL
same,half-life,[16],124 min
same,inhibition,[17],Dose-Dependent Effect
same,Activity,U-87MG ATCC [18],inactive
same,Activity,U-87MG ATCC [19],inactive
same,Activity,U-87MG ATCC [20],Dose-Dependent Effect
same,Activity,[21],Active
same,Activity,U-87MG ATCC [22],Active
same,Activity,U-87MG ATCC [23],Active
same,Activity,U-87MG ATCC [24],Active
same,Activity,U-87MG ATCC [25],Active
same,Activity,U-87MG ATCC [26],Active
same,Activity,U-87MG ATCC [27],Active
same,viability at 2 µM,U-87 MG [28],34.7%
same,Activity,U-87 MG [29],35.4%
same,Activity,U-87 MG [30],25.5%
same,Activity,U-87 MG [31],4.51%
same,viability at 0.5 µM,U-87 MG [32],44.6%
same,Tmax,[33],45 min
same,Activity,U-87 MG [34],30.6%
same,Activity,U-87 MG [35],21.9%
same,Activity,U-87 MG [36],2.84%
same,Activity,[37],Non-Toxic
same,Tmax,[38],1.98 min
same,clearance,[39],4.33 mL/min/kg
same,Cmax,[40],867 ng/mL
same,AUC(0-t) at 24 h,[41],919 ng·h/mL
same,AUC(0-inf),[42],921 ng·h/mL
same,bioavailability,[43],4.75%
same,Papp,[44],4.07 ×10⁻⁶ cm/s
same,Kp at 24 h,[45],0.76
same,AUC at 24 h,[46],15600 ng·h/mL
same,AUC at 24 h,[47],20300 ng·h/mL
same,MST,U-87 MG [48],25.5 days
same,MST,U-87 MG [49],30.5 days
same,MST,U-87 MG [50],34 days
same,Activity,U-87 MG [51],Active
same,Activity,U-87 MG [52],Dose-Dependent Effect
same,Activity,U-87 MG [53],Active
same,IC50,[54],> 40000 nM
same,IC50,[55],49.2 nM
same,viability at 1 µM,U-87 MG [56],35.5%
